Measured values taken from ChEMBL document CHEMBL1139584 (Bioorg Med Chem Lett, 2005).

How the values were obtained:
[1] = target: T1, Somatostatin receptor type 5 (Homo sapiens, UniProt P35346); experiment: Inhibitory constant against human sst5 receptor at a dose of 10 uM
[2] = target: T2, Somatostatin receptor type 2 (Homo sapiens, UniProt P30874); experiment: Inhibitory constant against human sst2 receptor at a dose of 10 uM
[3] = target: Somatostatin receptor type 4 (Homo sapiens, UniProt P31391); experiment: Binding affinity against human sst4 receptor at a dose of 10 uM
Somatostatin receptor type 4, sequence (P31391 whole entry): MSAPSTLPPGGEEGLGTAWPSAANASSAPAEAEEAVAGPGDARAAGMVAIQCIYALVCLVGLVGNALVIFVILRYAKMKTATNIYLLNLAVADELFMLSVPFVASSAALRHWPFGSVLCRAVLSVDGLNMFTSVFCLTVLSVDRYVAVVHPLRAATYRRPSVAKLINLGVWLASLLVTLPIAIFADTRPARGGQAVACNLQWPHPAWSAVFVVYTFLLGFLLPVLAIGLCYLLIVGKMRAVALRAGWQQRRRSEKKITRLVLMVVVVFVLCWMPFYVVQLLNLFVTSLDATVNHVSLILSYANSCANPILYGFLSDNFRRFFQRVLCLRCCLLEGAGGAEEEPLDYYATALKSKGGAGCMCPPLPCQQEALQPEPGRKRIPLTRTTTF

[4] = target: Somatostatin receptor type 1 (Homo sapiens, UniProt P30872); experiment: Binding affinity against human sst1 receptor at a dose of 10 uM
Somatostatin receptor type 1, sequence (P30872 whole entry): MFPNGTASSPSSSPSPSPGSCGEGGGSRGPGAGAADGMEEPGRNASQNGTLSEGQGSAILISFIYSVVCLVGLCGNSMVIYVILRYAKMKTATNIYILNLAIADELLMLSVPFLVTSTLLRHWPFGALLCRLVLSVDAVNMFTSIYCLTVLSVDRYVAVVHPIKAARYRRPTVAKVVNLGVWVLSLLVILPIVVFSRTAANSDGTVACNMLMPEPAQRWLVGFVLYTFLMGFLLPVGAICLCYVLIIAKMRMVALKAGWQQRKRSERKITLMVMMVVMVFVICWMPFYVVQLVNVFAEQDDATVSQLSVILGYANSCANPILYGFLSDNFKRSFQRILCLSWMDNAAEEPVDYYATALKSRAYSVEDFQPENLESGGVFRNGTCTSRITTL

[5] = target: Somatostatin receptor type 3 (Homo sapiens, UniProt P32745); experiment: Binding affinity against human sst3 receptor at 10 uM
Somatostatin receptor type 3, sequence (P32745 whole entry): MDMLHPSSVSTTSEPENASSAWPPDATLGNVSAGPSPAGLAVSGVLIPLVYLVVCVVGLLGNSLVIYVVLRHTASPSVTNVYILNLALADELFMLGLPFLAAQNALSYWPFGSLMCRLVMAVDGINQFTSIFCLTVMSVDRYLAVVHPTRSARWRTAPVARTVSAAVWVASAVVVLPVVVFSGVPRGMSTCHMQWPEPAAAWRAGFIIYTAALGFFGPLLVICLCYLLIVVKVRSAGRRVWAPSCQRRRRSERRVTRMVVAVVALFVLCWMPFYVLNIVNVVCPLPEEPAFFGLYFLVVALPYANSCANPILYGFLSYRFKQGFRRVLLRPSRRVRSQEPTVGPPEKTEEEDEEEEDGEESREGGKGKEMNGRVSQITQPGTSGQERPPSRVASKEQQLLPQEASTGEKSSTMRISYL

[6] = target: T1, Somatostatin receptor type 5; experiment: Inhibition of forskolin-induced cAMP accumulation in CHO-K1 cells expressing human sst5 receptor; assay type: functional, cell-based
[7] = target: T2, Somatostatin receptor type 2; experiment: Inhibition of forskolin-induced cAMP accumulation in CHO-K1 cells expressing human sst2 receptor; assay type: functional, cell-based

T2 sequence (P30874 whole entry): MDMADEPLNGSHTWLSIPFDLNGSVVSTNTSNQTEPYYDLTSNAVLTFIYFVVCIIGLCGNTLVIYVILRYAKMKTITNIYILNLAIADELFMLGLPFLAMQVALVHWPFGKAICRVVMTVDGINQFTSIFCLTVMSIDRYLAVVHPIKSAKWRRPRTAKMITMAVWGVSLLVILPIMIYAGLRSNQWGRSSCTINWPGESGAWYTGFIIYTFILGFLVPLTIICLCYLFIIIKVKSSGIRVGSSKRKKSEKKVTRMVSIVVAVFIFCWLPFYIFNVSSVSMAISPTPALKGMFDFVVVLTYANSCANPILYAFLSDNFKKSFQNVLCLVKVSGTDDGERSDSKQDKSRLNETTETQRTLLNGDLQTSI
T1 sequence (P35346 whole entry): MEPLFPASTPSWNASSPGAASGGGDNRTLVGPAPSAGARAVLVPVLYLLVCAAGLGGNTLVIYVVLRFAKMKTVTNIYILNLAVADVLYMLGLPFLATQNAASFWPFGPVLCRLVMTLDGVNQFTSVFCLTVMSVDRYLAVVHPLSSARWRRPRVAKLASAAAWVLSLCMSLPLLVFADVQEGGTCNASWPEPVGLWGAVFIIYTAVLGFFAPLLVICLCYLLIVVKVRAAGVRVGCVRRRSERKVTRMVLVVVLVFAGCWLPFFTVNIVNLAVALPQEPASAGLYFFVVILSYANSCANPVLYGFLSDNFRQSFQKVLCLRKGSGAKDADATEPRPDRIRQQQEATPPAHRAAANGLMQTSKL

Row | SMILES | Ki [1] | Ki [2] | Ki [3] | Ki [4] | Ki [5] | EC50 [6] | EC50 [7]
1 | NCCCCn1c(SCCc2c[nH]c3ccccc23)nnc1-c1cnc2ccccc2n1 | 56 nM | 32 nM | – | – | – | – | –
2 | NCCCCn1c(SCCc2c[nH]c3ccccc23)nnc1-c1ccc2ccccc2c1 | 27 nM | 100 nM | – | – | – | – | –
3 | Cc1cccc2c(C(=O)C(C)(C)CSc3nnc(-c4ccc5ccccc5n4)n3CCCCN)c[nH]c12 | 9.3 nM | 23 nM | – | – | – | – | –
4 | NCCCCn1c(SCCc2c[nH]c3ccccc23)nnc1-c1cc2ccccc2s1 | 58 nM | 160 nM | – | – | – | – | –
5 | NCCCCn1c(SCCc2c[nH]c3ccccc23)nnc1-c1cccc2ccccc12 | 410 nM | 150 nM | – | – | – | – | –
6 | NCCCCn1c(SCCc2c[nH]c3cc(F)ccc23)nnc1-c1ccc2ccccc2n1 | 1.7 nM | 2.7 nM | 74 nM | 58 nM | 100 nM | 44 nM | 14 nM
7 | NCCCCn1c(SCCc2c[nH]c3ccccc23)nnc1-c1ccc2cc(F)ccc2n1 | 7.8 nM | 12 nM | – | – | – | – | –
8 | CCc1ccc(-c2nnc(SCCc3c[nH]c4ccccc34)n2CCCCN)cc1 | 26 nM | 430 nM | – | – | – | – | –

Other lines, results leading:

Row | Ki [1] | Ki [2] | Ki [3] | Ki [4] | Ki [5] | EC50 [6] | EC50 [7] | SMILES
9 | 8.4 nM | 4 nM | 130 nM | 180 nM | 97 nM | – | – | NCCCCn1c(SCCc2c[nH]c3c(Cl)cccc23)nnc1-c1ccc2ccccc2n1
10 | 51 nM | 250 nM | – | – | – | – | – | NCCCCn1c(SCCc2c[nH]c3ccccc23)nnc1-c1cccc(Br)c1
11 | 2.1 nM | 1.8 nM | 140 nM | 130 nM | 41 nM | 34 nM | 22 nM | Cc1cccc2c(CCSc3nnc(-c4ccc5ccccc5n4)n3CCCCN)c[nH]c12
12 | 64 nM | 220 nM | – | – | – | – | – | NCCCCn1c(SCCc2c[nH]c3ccccc23)nnc1-c1cccc2cc[nH]c12
13 | 2.3 nM | 5.6 nM | – | – | – | 52 nM | 6.3 nM | NCCCCn1c(SCCc2c[nH]c3ccc(Cl)cc23)nnc1-c1ccc2ccccc2n1
14 | 1300 nM | 2800 nM | – | – | – | – | – | CN(C)CCCCn1c(SCCc2c[nH]c3ccccc23)nnc1-c1ccc2ccccc2c1
15 | 70 nM | 610 nM | – | – | – | – | – | NCCCCCn1c(SCCc2c[nH]c3ccccc23)nnc1-c1ccc2ccccc2c1
16 | 66 nM | 640 nM | – | – | – | – | – | NCCCn1c(SCCc2c[nH]c3ccccc23)nnc1-c1ccc2ccccc2c1
17 | 0.38 nM | 2 nM | 800 nM | 530 nM | 170 nM | 2.3 nM | 4 nM | Cc1cccc2c(C(=O)CCSc3nnc(-c4ccc5ccccc5n4)n3CCCCN)c[nH]c12
